# From patent US20120136003A1, “COMPOUNDS, COMPOSITIONS AND METHODS COMPRISING 1,3,4-OXADIAZOLE DERIVATIVES” (Institute For Oneworld Health, priority 2009, published 2012)
# Target: CFTR (Homo sapiens, UniProt P13569)
# Assay: T84 assay (FLIPR membrane potential)
# Type: cell-based
# Set-up: Human colonic T84 cells are acquired from the European Collection of Cell Cultures (ECACC); host or cells: T84 human colonic cells
# Procedure: (§1) For example, Human colonic T84 cells can be acquired from the European Collection of Cell Cultures (ECACC) and grown in standard culture conditions as described by the supplier. On the day before assay 25,000 T84 cells per well are plated into standard black walled, clear bottom 384-well assay plates in standard growth medium consisting of DMEM:F12 with 10% FBS and incubated overnight. On the day of the assay the plates are washed using a standard assay buffer (HBSS with 10 mM Hepes) and incubated for 15 minutes in serum free cell culture medium before the addition of a commercially available membrane potential sensitive fluorescent dye (FLIPR Red membrane potential dye, Molecular Devices Corporation). T84 cells are incubated with the FLIPR Red membrane potential dye for 45 minutes in the presence and absence of test compound before being transferred to a commercially available fluorescence imaging plate reader (FLIPR384, Molecular Devices Corporation). Fluorescence levels are monitored continuously every second for 150 seconds; after an initial 10 second baseline, CFTR channel activity is stimulated through the addition of 10 μM forskolin in the presence of 100 μM of the phosphodiesterase inhibitor iso-butyl-methylxanthine (IBMX). Addition of the forskolin leads to the activation of intracellular adenylyl cylase 1, elevating cAMP levels and results in the phosphorylation and opening of CFTR anion channels. CFTR channel opening causes chloride ion efflux and subsequent depolarization of the cells, which is measured by an increase in fluorescence. CFTR inhibitor compounds prevent cell depolarization and the associated increase in fluorescence.
# as §1, with “Human colonic” for “For example, Human colonic”, “T84 cells are acquired from” for “T84 cells can be acquired from”, “(ECACC) and are grown in” for “(ECACC) and grown in”, “with 10 Mm Hepes) and” for “with 10 mM Hepes) and”, “1, elevating Camp levels and” for “1, elevating cAMP levels and”
# Chain of CFTR (P13569 whole entry): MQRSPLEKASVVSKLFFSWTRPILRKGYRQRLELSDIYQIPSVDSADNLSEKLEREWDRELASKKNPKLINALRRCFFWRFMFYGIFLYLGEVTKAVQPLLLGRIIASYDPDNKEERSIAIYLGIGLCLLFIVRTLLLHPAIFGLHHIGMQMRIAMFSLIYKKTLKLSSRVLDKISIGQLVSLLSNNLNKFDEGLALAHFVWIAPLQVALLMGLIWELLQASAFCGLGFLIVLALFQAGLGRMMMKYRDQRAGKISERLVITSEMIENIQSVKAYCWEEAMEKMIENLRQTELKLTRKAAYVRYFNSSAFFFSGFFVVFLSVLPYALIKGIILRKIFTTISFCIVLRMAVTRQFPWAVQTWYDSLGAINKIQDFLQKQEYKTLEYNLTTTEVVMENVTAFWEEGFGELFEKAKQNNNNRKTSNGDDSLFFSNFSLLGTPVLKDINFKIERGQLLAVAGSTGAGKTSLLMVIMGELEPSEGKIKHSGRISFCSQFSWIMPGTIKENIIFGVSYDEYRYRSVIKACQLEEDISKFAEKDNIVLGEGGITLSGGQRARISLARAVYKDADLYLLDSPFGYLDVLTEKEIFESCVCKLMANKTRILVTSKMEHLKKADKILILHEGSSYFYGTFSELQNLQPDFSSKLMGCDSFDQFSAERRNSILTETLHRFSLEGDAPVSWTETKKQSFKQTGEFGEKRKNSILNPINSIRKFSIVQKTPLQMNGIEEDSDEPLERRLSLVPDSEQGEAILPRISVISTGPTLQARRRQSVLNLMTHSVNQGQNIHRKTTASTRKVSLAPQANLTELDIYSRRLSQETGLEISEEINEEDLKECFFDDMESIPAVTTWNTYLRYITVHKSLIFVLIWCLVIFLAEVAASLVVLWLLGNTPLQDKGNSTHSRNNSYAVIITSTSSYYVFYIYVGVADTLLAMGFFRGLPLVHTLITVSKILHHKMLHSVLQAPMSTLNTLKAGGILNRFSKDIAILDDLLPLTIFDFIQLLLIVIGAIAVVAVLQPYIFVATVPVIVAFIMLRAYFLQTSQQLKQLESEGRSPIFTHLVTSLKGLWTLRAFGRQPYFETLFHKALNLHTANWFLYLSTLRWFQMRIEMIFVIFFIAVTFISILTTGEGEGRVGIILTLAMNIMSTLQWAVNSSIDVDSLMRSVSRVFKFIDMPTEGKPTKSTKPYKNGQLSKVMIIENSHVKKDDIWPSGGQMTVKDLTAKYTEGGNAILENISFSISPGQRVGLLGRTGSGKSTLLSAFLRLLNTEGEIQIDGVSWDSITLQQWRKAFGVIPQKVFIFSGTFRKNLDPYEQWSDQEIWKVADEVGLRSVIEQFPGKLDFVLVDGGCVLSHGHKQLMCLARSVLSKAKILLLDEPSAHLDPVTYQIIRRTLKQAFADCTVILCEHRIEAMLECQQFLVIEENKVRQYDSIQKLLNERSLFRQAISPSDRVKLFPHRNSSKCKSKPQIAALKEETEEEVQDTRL
row,SMILES,IC50 [µM]
1,"O=C(NCc1cccc(OC(F)(F)F)c1)c1nnc(-c2cc(Cl)c(O)c(Cl)c2)o1 [Compound 1, 5-(3,5-dichloro-4-hydroxyphenyl)-N-(3-(trifluoromethoxy)benzyl)-1,3,4-oxadiazole-2-carboxamide]",17.4
2,"O=C(NCc1ccc(Oc2ccccc2)cc1)c1nnc(-c2cc(Cl)c(O)c(Cl)c2)o1 [Compound 2, 5-(3,5-Dichloro-4-hydroxyphenyl)-N-(4-phenoxybenzyl)-1,3,4-oxadiazole-2-carboxamide]",3.95
3,"O=C(c1nnc(-c2cc(Cl)c(O)c(Cl)c2)o1)N1CCC(Cc2ccccc2)CC1 [Compound 3, (4-benzylpiperidin-1-yl)(5-(3,5-dichloro-4-hydroxyphenyl)-1,3,4-oxadiazol-2-yl)methanone]",9.5
4,"CC(C)(C)c1ccc(CNC(=O)c2nnc(-c3cc(Cl)c(O)c(Cl)c3)o2)cc1 [Compound 5, N-(4-tert-butylbenzyl)-5-(3,5-dichloro-4-hydroxyphenyl)-1,3,4-oxadiazole-2-carboxamide]",7.38
5,"O=C(NC(c1ccccc1)c1ccccc1)c1nnc(-c2cc(Cl)c(O)c(Cl)c2)o1 [Compound 6, N-benzhydryl-5-(3,5-dichloro-4-hydroxyphenyl)-1,3,4-oxadiazole-2-carboxamide]",14.6
6,"O=C(NCc1ccc(Oc2ccccc2)cc1)c1nnc(-c2cccc(NS(=O)(=O)C(F)(F)F)c2)o1 [Compound 7, N-(4-phenoxybenzyl)-5-(3-(trifluoromethylsulfonamido)phenyl)-1,3,4-oxadiazole-2-carboxamide]",15.8
7,"O=C(c1nnc(-c2cccc(NS(=O)(=O)C(F)(F)F)c2)o1)N1CCC(Cc2ccccc2)CC1 [Compound 8, N-(3-(5-(4-benzylpiperidine-1-carbonyl)-1,3,4-oxadiazol-2-yl)phenyl)-1,1,1-trifluoromethanesulfonamide]",13.3
8,"CC(C)(C)c1ccc(CNC(=O)c2nnc(-c3cccc(NS(=O)(=O)C(F)(F)F)c3)o2)cc1 [Compound 9, N-(4-tert-butylbenzyl)-5-(3-(trifluoromethylsulfonamido)phenyl)-1,3,4-oxadiazole-2-carboxamide]",19
9,"CN(Cc1ccc(Cl)c(Cl)c1)C(=O)c1nnc(-c2cccc(NS(=O)(=O)C(F)(F)F)c2)o1 [Compound 10, N-(3,4-dichlorobenzyl)-N-methyl-5-(3-(trifluoromethylsulfonamido)phenyl)-1,3,4-oxadiazole-2-carboxamide]",11.8
10,"O=C(c1nnc(-c2cccc(NS(=O)(=O)C(F)(F)F)c2)o1)N1CCN(c2cccc(C(F)(F)F)c2)CC1 [Compound 11, 1,1,1-trifluoro-N-(3-(5-(4-(3-(trifluoromethyl)phenyl)piperazine-1-carbonyl)-1,3,4-oxadiazol-2-yl)phenyl)methanesulfonamide]",13.4
11,"CN(Cc1ccc(Cl)c(Cl)c1)C(=O)c1nnc(-c2cc(Cl)c(O)c(Cl)c2)o1 [Compound 12, 5-(3,5-dichloro-4-hydroxyphenyl)-N-(3,4-dichlorobenzyl)-N-methyl-1,3,4-oxadiazole-2-carboxamide]",1.88
12,"CN(Cc1cccc(Oc2ccccc2)c1)C(=O)c1nnc(-c2cc(Cl)c(O)c(Cl)c2)o1 [Compound 13, 5-(3,5-dichloro-4-hydroxyphenyl)-N-methyl-N-(3-phenoxybenzyl)-1,3,4-oxadiazole-2-carboxamide]",3.26
13,"O=C(NCc1cccc(Oc2ccccc2)c1)c1nnc(-c2cc(Cl)c(O)c(Cl)c2)o1 [Compound 14, 5-(3,5-dichloro-4-hydroxyphenyl)-N-(3-phenoxybenzyl)-1,3,4-oxadiazole-2-carboxamide]",5.37
14,"O=C(NCC(c1ccccc1)c1ccccc1)c1nnc(-c2cc(Cl)c(O)c(Cl)c2)o1 [Compound 15, 5-(3,5-dichloro-4-hydroxyphenyl)-N-(2,2-diphenylethyl)-1,3,4-oxadiazole-2-carboxamide]",5.77
15,"O=C(NCc1cccc(OCc2ccccc2)c1)c1nnc(-c2cc(Cl)c(O)c(Cl)c2)o1 [Compound 16, N-(3-(benzyloxy)benzyl)-5-(3,5-dichloro-4-hydroxyphenyl)-1,3,4-oxadiazole-2-carboxamide]",7.53
16,"CN(Cc1ccc(Cl)c(Cl)c1)C(=O)c1nnc(-c2ccc(NS(=O)(=O)C(F)(F)F)cc2)o1 [Compound 17, N-(3,4-dichlorobenzyl)-N-methyl-5-(4-(trifluoromethylsulfonamido)phenyl)-1,3,4-oxadiazole-2-carboxamide]",9.62
17,"O=C(NCc1ccc(OCc2ccccc2)cc1)c1nnc(-c2cc(Cl)c(O)c(Cl)c2)o1 [Compound 18, N-(4-(benzyloxy)benzyl)-5-(3,5-dichloro-4-hydroxyphenyl)-1,3,4-oxadiazole-2-carboxamide]",9.86
18,"O=C(NCc1cccc(-c2ccccc2)c1)c1nnc(-c2cc(Cl)c(O)c(Cl)c2)o1 [Compound 19, N-(biphenyl-3-ylmethyl)-5-(3,5-dichloro-4-hydroxyphenyl)-1,3,4-oxadiazole-2-carboxamide]",9.89
19,"CC(C)(C)c1ccc(CNC(=O)c2nnc(-c3ccc(NS(=O)(=O)C(F)(F)F)cc3)o2)cc1 [Compound 20, N-(4-tert-butylbenzyl)-5-(4-(trifluoromethylsulfonamido)phenyl)-1,3,4-oxadiazole-2-carboxamide]",12.7
20,"O=C(NCc1cc(F)cc(C(F)(F)F)c1)c1nnc(-c2cc(Cl)c(O)c(Cl)c2)o1 [Compound 21, 5-(3,5-dichloro-4-hydroxyphenyl)-N-(3-fluoro-5-(trifluoromethyl)benzyl)-1,3,4-oxadiazole-2-carboxamide]",13.6
21,"O=C(NCc1ccc(OC(F)(F)F)cc1)c1nnc(-c2cc(Cl)c(O)c(Cl)c2)o1 [Compound 22, 5-(3,5-dichloro-4-hydroxyphenyl)-N-(4-(trifluoromethoxy)benzyl)-1,3,4-oxadiazole-2-carboxamide]",14.3
22,"O=C(NCc1ccc(Oc2ccccc2)cc1)c1nnc(-c2ccc(NS(=O)(=O)C(F)(F)F)cc2)o1 [Compound 23, N-(4-phenoxybenzyl)-5-(4-(trifluoromethylsulfonamido)phenyl)-1,3,4-oxadiazole-2-carboxamide]",18.8
23,"O=C(NCc1ccc(F)c(C(F)(F)F)c1)c1nnc(-c2cc(Cl)c(O)c(Cl)c2)o1 [Compound 24, 5-(3,5-dichloro-4-hydroxyphenyl)-N-(4-fluoro-3-(trifluoromethyl)benzyl)-1,3,4-oxadiazole-2-carboxamide]",19.7
24,"O=C(c1nnc(-c2ccc(NS(=O)(=O)C(F)(F)F)cc2)o1)N1CCN(c2cccc(C(F)(F)F)c2)CC1 [Compound 25, 1,1,1-trifluoro-N-(4-(5-(4-(3-(trifluoromethyl)phenyl)piperazine-1-carbonyl)-1,3,4-oxadiazol-2-yl)phenyl)methanesulfonamide]",20.6
25,"CC(NC(=O)c1nnc(-c2cc(Cl)c(O)c(Cl)c2)o1)c1ccc(Cl)cc1 (stereo not shown) [Compound 26, N-(1-(4-chlorophenyl)ethyl)-5-(3,5-dichloro-4-hydroxyphenyl)-1,3,4-oxadiazole-2-carboxamide]",27.8
